The record followed here is patent US12678475B2, “Compositions and methods for treating and preventing lung disease” (ARIZONA BOARD OF REGENTS ON BEHALF OF THE UNIVERSITY OF …, priority 2016, dated 2026).

Experiment [1] relates to WT C57BL/6 mice, house dust mite (HDM) model. Put plainly: House dust mite (HDM) model in WT C57BL/6 mice, mucin production and BAL eosinophilia. Type of experiment: in vivo. As to conditions: WT C57BL/6, HDM days 0, 7, 14; 25 μg/mouse oropharyngeal 24 h after last challenge (FIGS. 5, 6). On the procedure: Regarding FIG. 5, WT C57BL/6 mice were sensitized and challenged in the house dust mite (HDM) model according to standard methods on days 0, 7, 14 (black arrows). Twenty-four hours after the last challenge, mice received either scrambled vehicle or a 20-mer SP-A peptide (dotted arrow) that encompassed the active site containing 223Q (at a physiologic dose of 25 μg/mouse delivered in 40 μl of sterile saline) by oropharyngeal instillation. Lung histological sections were analyzed for mucin production as assessed by PAS stain/scoring to determine if the SP-A peptide could protect from HDM-induced airway mucin production. […] Peptide sequence: […] (SEQ ID NO: 8).
Regarding FIG. 6, WT C57BL/6 mice were sensitized and challenged in the house dust mite (HDM) model according to standard methods on days 0, 7, 14 as shown in FIG. 5 (black arrows). […] Lung histological sections were analyzed for mucin production as assessed by PAS stain/scoring to determine if the SP-A peptide could protect from HDM-induced airway mucin production. […]
Regarding FIG. 7, WT C57BL/6 mice were sensitized and challenged in the house dust mite (HDM) model according to standard methods on days 0, 7, 14 as shown in FIG. 5 (black arrows). […] Bronchoalveolar lavage samples were analyzed for eosinophilia to determine if the SP-A peptide could protect from HDM-induced airway eosinophilia by decreasing eosinophil viability. […]

Experiment [2] has as its system SP-A deficient mice challenged in the HDM model. Put plainly: HDM model in SP-A deficient mice, therapeutic SP-A peptides. Type of experiment: in vivo. As to conditions: peptide given 24 hrs after the last challenge; for eosinophilia in the lavage compartment: compared to vehicle treated mice (FIG. 3A); for mucin production: compared to vehicle treated mice (FIG. 3B). On the procedure:
FIGS. 3A and 3B show the analysis of inflammation in mice that receive “therapeutic” SP-A peptides in the HDM model. Mice were sensitized and challenged in the HDM model according to common methods. Twenty-four hours after the last challenge, mice received either vehicle, a 20-mer or a 10-mer that encompassed the active site containing 223Q. BAL cellularity (left panel) and mucin production (right panel) were assessed 7 days post challenge to assess the role of SP-A on allergic airways resolution. […] Both 223Q and 223K mice are somewhat protected in the acute phase of this model.

The test system of experiment [3] is WT C57BL/6 mice challenged with IL-13. Put plainly: Methacholine-induced airway hyper-responsiveness (AHR) in IL-13 model. Type of experiment: in vivo. As to conditions: IL-13 model (3.9 ug IL-13 daily, 3 days); oropharyngeal 2 h after each challenge; 24 hours post IL-13 challenge; vs vehicle. On the procedure:
WT C57BL/6 mice were challenged with 3.9 ug of IL-13 (arrow) once a day for 3 consecutive days via oropharyngeal instillation. […] Pulmonary function tests were conducted 24 hours post IL-13 challenge to determine if the SP-A peptide could protect from methacholine-induced airway hyper-responsiveness (AHR). Mice that received the SP-A peptide after HDM challenge had attenuated: overall resistance (Rrs) and central airways resistance (Rn) as compared to HDM challenged mice that received vehicle treatment.

Experiment [4] relates to human airway epithelial cells. Put plainly: IL-13 exposure of airway epithelial cells from asthmatics at air liquid interface, MUC5AC by RT-PCR. It counts as cell-based. How it is done: Airway epithelial cells at ALI from two asthmatic subjects exposed to IL-13 alone, and IL-13 plus SP-A2 peptide that include the Gln at position 223 in the lectin domain (2230). Full-length oligomeric SP-A that is homozygous at position 223Q/Q was used as a positive control. After 48 hours incubation, MUCSAC expression was determined by RT-PCR
Experiments were conducted wherein airway epithelial cells from two subjects with asthma not on controller therapy were cultured at air liquid interface for two weeks. In separate conditions the cells were exposed to each peptide at 50 ng/ml for 30 minutes followed by IL-13 at 50 ng/ml and incubated for 48 hours. Cells were placed in Trizol MUCSAC was determined by RT-PCR. […] The 10 AA length is especially useful as a therapeutic agent as its size renders it able to be packaged into an inhaler type of device for delivery to the airways.
Regarding FIG. 8, human bronchial epithelial cells obtained from a well-phenotyped asthmatic were grown at an ALI for two weeks prior to experimentation. For challenge, each of the SP-A test peptides (50 μg/ml) were added to the apical compartment at least 30 minutes prior to IL-13 challenge. Muc5AC was analyzed by RT-PCR from cell lysates and analyzed as a fold over the control samples. Peptide sequences: 20-mer […] (SEQ ID NO: 8), peptide 1 PAGRGKEQCV (SEQ ID NO: 2), peptide 2 EMYTDGQWND (SEQ ID NO: 3), peptide 3 KEQCVEMYTD (SEQ ID NO: 4) FL=full length oligomeric SP-A that is extracted from lavage of alveolar proteinosis individuals.

Experiment [5] relates to WT C57BL/6 mice, HDM model. Put plainly: Methacholine-induced airway hyper-responsiveness (AHR) in HDM model. Type of experiment: in vivo. As to conditions: 25 mg/mouse in 40 ml saline oropharyngeal 24 h after each challenge, 3-5 days post HDM challenge, vs vehicle. How it is done:
Twenty-four hours after each challenge, mice received either scrambled vehicle or a 10-mer SP-A peptide (KEQCVEMYTD (SEQ ID NO: 4)) (arrow) that encompassed the active site containing 223Q (at a physiologic dose of […] delivered in […] of sterile saline) by oropharyngeal instillation. Pulmonary function tests were conducted 3-5 days post HDM challenge to determine if the SP-A peptide could protect from methacholine-induced airway hyper-responsiveness (AHR). Mice that received the SP-A peptide after HDM challenge had attenuated: overall resistance (Rrs) and central airways resistance (Rn) as compared to HDM challenged mice that received vehicle treatment.

Another experiment has as its system eosinophils. Put plainly: In vitro studies with isolated eosinophils. It counts as cell-based.
Setting [6] is: airway epithelial cells from asthmatic subjects with allergic or type 2 asthma.

Turning to “PAGRGKEQCVEMYTDGQWND (listed as Homo sapiens) [SEQ ID NO: 8]”, the “mucin production (PAS stain/scoring)” value in experiment [1] is reported as “reduce mucin production”. In experiment [2], the “eosinophilia in the lavage compartment” value is on record as “significantly less eosinophilia” and the mucin production entry is “less mucin production”.
Regarding “KEQCVEMYTD (listed as Homo sapiens) [SEQ ID NO: 4]”, in experiment [3], the “central airways resistance (Rn)” value is on record as “attenuated” and the “overall resistance (Rrs)” value was “attenuated”. In experiment [4] (cells from two asthmatic subjects at ALI, peptide 50 ng/ml 30 minutes, then IL-13 50 ng/ml, 48 hours (FIG. 4)), the “MUCSAC expression (RT-PCR)” value was “attenuates”. For the same substance, in experiment [5], the “central airways resistance (Rn)” value was “attenuated” and the “overall resistance (Rrs)” value is “attenuated”. Further, in experiment [2], the “eosinophilia in the lavage compartment” value is “significantly less eosinophilia” and the mucin production result is “less mucin production”.
As to “SP-A: Surfactant protein-A, a secreted lipoprotein complex; full length oligomeric SP-A extracted from lavage of alveolar proteinosis individuals”, in experiment [4] (setting [6]), the “IL-6 induced by IL-13” value is listed as “attenuates” and the “mucin induced by IL-13” value is “attenuates”. Besides, in the experiment on eosinophils, the eosinophil apoptosis result is listed as “directly stimulates eosinophil apoptosis”.
